Experimental data from patent publication US20210213104A1, “GLUCAGON AND GLP-1 CO-AGONISTS FOR THE TREATMENT OF CHRONIC KIDNEY DISEASE AND DIABETIC KIDNEY DISEASE IN TYPE 2 DIABETES” (MEDIMMUNE LIMITED, priority 2020, published 2021).

Tested on: subjects with T2DM and renal impairment
Experiment: Phase 2a: continuous glucose monitoring (CGM)
Type: in vivo, human
Conditions: ITT; for Time in target range, LS Mean Change / Percentage of Time CGM Glucose Within Target Range (70-180 mg/dL), Mean / Percentage of Time CGM Glucose Within Target Range (70-180 mg/dL), Median / Time in target range, Change from Baseline (Days −8 to −2), Mean / Time in target range, Change from Baseline (Days −8 to −2), Median / Time in target range, Difference in LS Mean Change (vs Placebo): 100 μg Dose (Days 5 to 11)
Experimental: Cotadutide was titrated from 50 μg up to 300 μg and administered once daily by subcutaneous (SC) injection over 32 days.
Cotadutide was administered at 50 μg once daily for 4 days, followed by 100 μg daily for 7 days, 200 μg daily for 7 days, and 300 μg daily for 14 days (n=20). Placebo was administered one daily for 32 days (n=20). Cotadutide and placebo were administered in the morning. Dosing commenced following predose baseline vital signs, blood tests (including HbA1c), an electrocardiogram (ECG), body weight measurement, and bioimpedance spectroscopy (BIS). Subjects then returned for daily dosing or remained overnight locally until Day 5, and thereafter, had visits at weekly intervals until a maintenance dose of 300 μg was established. Thus, Cotadutide or placebo was administered at the study site by study personal for the first four doses and on site on Days 5, 12, 19, and 32. At all other times, subjects preformed dosing at home.
A Freestyle Libre® Pro CGM device was used to measure interstitial glucose levels. […] Data generated by CGM was used at visits to adjust insulin doses and other treatments.
The CGM sensor, which is a small plastic circular device of 35 mm diameter and 5 mm depth, was applied to the back of the upper arm. Subjects wore the CGM sensor continuously up until the time of a sensor change, which was to occur within 14 days, and they were advised that they could bathe and shower, and swim in up to 3 m depth for up to 30 minutes while wearing the CGM sensor. When the CGM sensor was removed, a new CGM sensor could be reapplied, ideally close to the original site, but with the subject's site preference taken into account. CGM sensors were single-use only.
If a subject was unable to tolerate wearing the CGM sensor for the entire duration of the study, the sensor was removed; but the subject was to remain in the study with or without continued CGM and could instead be instructed to monitor capillary plasma glucose measurements four times per day (before meals and before bedtime) and record these levels in the diary provided.
Subjects underwent continuous glucose monitoring (CGM) starting from Day −14 to Day 40 (±5 days), with sensor changes within 14-day intervals. CGM readings were used to analyze change in average CGM glucose and glucose AUC7 d, coefficient of variation as a marker of glycemic variability, and time spent in target glucose range and hypoglycemia, to enable comparison across different dose levels.

[1] = 50 μg (Days 1 to 4, not 7 days), baseline Days −8 to −2, ANCOVA
[2] = 100 μg (Days 5 to 11), baseline Days −8 to −2, ANCOVA
[3] = 100 μg (Days 5 to 11), baseline Days −8 to −2

With `CCCCCCCCCCCCCCCC(=O)N[C@@H](CCC(=O)NCCCC[C@H](NC(=O)[C@H](CC(=O)O)NC(=O)[C@H](CO)NC(=O)[C@@H](NC(=O)[C@H](Cc1ccccc1)NC(=O)[C@@H](NC(=O)CNC(=O)[C@H](CCC(N)=O)NC(=O)[C@H](CO)NC(=O)[C@@H](N)Cc1c[nH]cn1)[C@@H](C)O)[C@@H](C)O)C(=O)N[C@@H](CO)C(=O)N[C@@H](CCC(=O)O)C(=O)N[C@@H](Cc1ccc(O)cc1)C(=O)N[C@@H](CC(C)C)C(=O)N[C@@H](CC(=O)O)C(=O)N[C@@H](CO)C(=O)N[C@@H](CCC(=O)O)C(=O)N[C@@H](CCCNC(=N)N)C(=O)N[C@@H](C)C(=O)N[C@@H](CCCNC(=N)N)C(=O)N[C@@H](CC(=O)O)C(=O)N[C@@H](Cc1ccccc1)C(=O)N[C@H](C(=O)N[C@@H](C)C(=O)N[C@@H](Cc1c[nH]c2ccccc12)C(=O)N[C@@H](CC(C)C)C(=O)N[C@@H](CCC(=O)O)C(=O)N[C@@H](C)C(=O)NCC(=O)NCC(=O)O)C(C)C)C(=O)O` [Cotadutide] the “Percentage of time CGM Glucose in Clinically Significant Hypoglycemia (<54 mg/dL), Difference in LS Mean Change (vs Placebo)” value [1] was 5.28%, the “Percentage of time CGM Glucose in Clinically Significant Hypoglycemia (<54 mg/dL), LS Mean Change” value [1] was 4.79% and the “Average CGM Glucose Over 7-Day Periods, End of Dosing Period, Mean” value (100 μg (Days 5 to 11)) was 127.599 mg/dL. The “Average CGM Glucose Over 7-Day Periods, End of Dosing Period, Median” value (100 μg (Days 5 to 11)) was 122.769 mg/dL, the “Percentage of time CGM Glucose in Hyperglycemia (>180 mg/dL), End of Dosing Period, Mean” value (100 μg (Days 5 to 11)) was 10.46% and the “Percentage of time CGM Glucose in Hyperglycemia (>180 mg/dL), End of Dosing Period, Median” value (100 μg (Days 5 to 11)) was 3.72%. For the same compound, the “Average CGM Glucose Over 7-Day Periods, Difference in LS Mean Change (vs Placebo)” value [2] was -46.73 mg/dL, the “Average CGM Glucose Over 7-Day Periods, LS Mean Change” value [2] was -36.35 mg/dL and the “Percentage of time CGM Glucose in Clinically Significant Hypoglycemia (<54 mg/dL), Difference in LS Mean Change (vs Placebo)” value [2] was 2.25%. For the same compound, the “Percentage of time CGM Glucose in Clinically Significant Hypoglycemia (<54 mg/dL), LS Mean Change” value [2] was 1.41%, the “Percentage of time CGM Glucose in Hyperglycemia (>180 mg/dL), Difference in LS Mean Change (vs Placebo)” value [2] was −29.72% and the “Percentage of time CGM Glucose in Hyperglycemia (>180 mg/dL), LS Mean Change” value [2] was −24.62%. The “Percentage of time CGM Glucose in Hypoglycemia (<70 mg/dl), Difference in LS Mean Change (vs Placebo)” value [2] was 2.80%, the “Percentage of time CGM Glucose in Hypoglycemia (<70 mg/dl), LS Mean Change” value [2] was 2.26% and the “Average CGM Glucose Over 7-Day Periods, Change from Baseline to End of Dosing Period, Mean” value [3] was -35.628 mg/dL. The “Average CGM Glucose Over 7-Day Periods, Change from Baseline to End of Dosing Period, Median” value [3] was -31.685 mg/dL, the “Percentage of time CGM Glucose in Hyperglycemia (>180 mg/dL), Change from Baseline to End of Dosing Period, Mean” value [3] was −24.45% and the “Percentage of time CGM Glucose in Hyperglycemia (>180 mg/dL), Change from Baseline to End of Dosing Period, Median” value [3] was −19.57%. For the same compound, the “Time in target range, LS Mean Change” value (ANCOVA, Insulin Dose < 20 U/day) was 26.25%, the “Time in target range, LS Mean Change” value (ANCOVA, Insulin Dose ≥ 20 U/day) was 3.59% and the “Time in target range, LS Mean Change” value (ANCOVA, Total) was 12.25%. The “Percentage of Time CGM Glucose Within Target Range (70-180 mg/dL), Mean” value (from here on “Percentage … (70-180 mg/dL), Mean”) (Insulin Dose < 20 U/day) was 94.44%, the “Percentage of Time CGM Glucose Within Target Range (70-180 mg/dL), Median” value (from here on “Percentage … (70-180 mg/dL), Median”) (Insulin Dose < 20 U/day) was 97.79% and the “Time in target range, Change from Baseline (Days −8 to −2), Mean” value (“Time in target range, Change … Mean” below) (Insulin Dose < 20 U/day) was 31.19%. The “Time in target range, Change from Baseline (Days −8 to −2), Median” value (“Time in target range, Change … Median” for short) (Insulin Dose < 20 U/day) was 33.99%, the “Time in target range, Difference in LS Mean Change (vs Placebo)” value (Insulin Dose < 20 U/day) was 44.84% and the “Percentage … (70-180 mg/dL), Mean” value (Insulin Dose ≥ 20 U/day) was 66.51%. The “Percentage … (70-180 mg/dL), Median” value (Insulin Dose ≥ 20 U/day) was 77.04%, the “Time in target range, Change … Mean” value (Insulin Dose ≥ 20 U/day) was 2.53% and the “Time in target range, Change … Median” value (Insulin Dose ≥ 20 U/day) was 12.04%. The “Time in target range, Difference in LS Mean Change (vs Placebo)” value (Insulin Dose ≥ 20 U/day) was 8.32%, the “Percentage … (70-180 mg/dL), Mean” value (Total) was 75.82% and the “Percentage … (70-180 mg/dL), Median” value (Total) was 84.38%. For the same compound, the “Time in target range, Change … Mean” value (Total) was 11.58% and the “Time in target range, Change … Median” value (Total) was 14.94%.
